Test results taken from US20240294531A1, “COVALENT HETEROCYCLES AND USES THEREOF” (Kumquat Biosciences Inc., priority 2022, published 2024).
pIC50: −log10 of the molar value.

Tests used:
BTK wildtype protein = BTK wildtype protein (Homo sapiens (Human), UniProt Q06187); experiment: BTK wildtype HTRF displacement assay; type: binding; conditions: 1-hour incubation; read-out: BTK (wt) IC50
Protocol: (§1) The ability of a compound to bind BTK wildtype or BTK C481S proteins was measured using an HTRF displacement assay. The assay measures the ability of a compound to displace a tracer ligand bound to the active site of BTK wildtype or BTK C481 S proteins.
(§2) Test compounds were prepared as 10 mM stock solutions in DMSO (Fisher cat #BP231-100). Compounds to be assayed were dispensed using an Echo 650 acoustic dispenser (Beckman Coulter) on a 384 well plate in 6 doses applying four-fold dilutions from the highest concentration of 5 μM. N-terminal GST-tagged recombinant full-length BTK wildtype protein and BTK C481 S protein 2-659 were purchased from Carna Biosciences, Inc (Kobe, Japan). BTK wildtype or BTK C481S protein was separately incubated with compound in assay buffer containing kinase tracer 239 (Thermo Fisher) and Mab anti GST-Th (PerkinElmer). After a 1-hour incubation at room temperature, the HTRF signal was measured using SPARK plate reader (Tecan) using the TR fluorescence mode. The HTRF ratio is calculated for DMSO, no protein control and compound samples using the following equation: HTRF ratio=Emmision665/Emmision620×10^4. The signal for the no protein control samples was used to subtract background noise from the DMSO and compound samples. Background subtracted HTRF ratios are used to calculate the percent inhibition, where DMSO controls are set to 0 percent inhibition. The percent inhibition is plotted as a function of compound concentration and IC50 values were calculated from a four-parameter logistic fit in Prism v9.4 (GraphPad), where the bottom and top are constrained to 0 and 100, respectively.

BTK C481S protein = BTK C481S protein (Homo sapiens (Human), UniProt Q06187, C481S); experiment: BTK C481S HTRF displacement assay; type: binding; conditions: 1-hour incubation
Protocol: as §1, §2
The same assay was used to measure the activity of selected compounds of the formula TBM-L-hydrogen. Using the IC50 value observed for a given reversible test compound, the KI of the test compound can be assessed using the formula KI=IC50/(1+([Tracer]/Kd)), wherein the tracer concentration in the assay [Tracer] is 50 nM and the tracer Kd for BTK C481S is 54 nM.

BTK C481S protein, sequence (Q06187 2-659 C481S): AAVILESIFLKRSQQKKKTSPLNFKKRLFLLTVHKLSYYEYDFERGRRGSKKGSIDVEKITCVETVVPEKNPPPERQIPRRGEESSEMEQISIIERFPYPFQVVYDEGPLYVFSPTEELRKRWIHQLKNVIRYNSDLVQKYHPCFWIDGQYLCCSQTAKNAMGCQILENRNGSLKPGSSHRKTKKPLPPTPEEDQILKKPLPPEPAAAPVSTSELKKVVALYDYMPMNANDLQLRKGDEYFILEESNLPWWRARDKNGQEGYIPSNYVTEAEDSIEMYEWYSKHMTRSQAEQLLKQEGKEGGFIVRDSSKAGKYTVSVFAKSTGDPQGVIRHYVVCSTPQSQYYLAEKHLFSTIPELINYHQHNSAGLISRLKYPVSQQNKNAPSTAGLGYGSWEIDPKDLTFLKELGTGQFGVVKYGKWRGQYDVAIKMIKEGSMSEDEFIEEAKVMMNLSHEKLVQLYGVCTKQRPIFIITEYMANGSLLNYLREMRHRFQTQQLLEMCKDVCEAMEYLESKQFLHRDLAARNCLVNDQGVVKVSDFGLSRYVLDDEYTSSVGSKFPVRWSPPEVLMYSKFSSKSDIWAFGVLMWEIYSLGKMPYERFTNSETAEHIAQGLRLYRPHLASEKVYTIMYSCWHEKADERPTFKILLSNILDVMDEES
BTK wildtype protein, sequence (Q06187 2-659): as the sequence (Q06187 2-659 C481S) above, with S480C counted along it

| pIC50 (BTK wildtype protein) | pIC50 (BTK C481S protein) | SMILES |
| --- | --- | --- |
| ≥ 6.00 | ≥ 6.00 | COc1ccc(F)cc1C(=O)NCc1ccc(-c2nn([C@H]3CCCC[C@@H](N(C)C(=O)n4cncn4)C3)c(N)c2C(N)=O)cc1 [Compound 222, N-((1R,3S)-3-(5-amino-4-carbamoyl-3-(4-((5-fluoro-2-methoxybenzamido)methyl)phenyl)-1H-pyrazol-1-yl)cycloheptyl)-N-methyl-1H-1,2,4-triazole-1-carboxamide] |
| ≥ 6.00 | ≥ 6.00 | NC(=O)c1c(-c2ccc(Oc3ccccc3)cc2)nn2c1NCC1CN(C(=O)n3cncn3)CCC12 (centres unmarked) [Compound 306, 2-(4-phenoxyphenyl)-7-(1H-1,2,4-triazole-1-carbonyl)-4,5,5a,6,7,8,9,9a-octahydropyrazolo[1,5-a]pyrido[3,4-e]pyrimidine-3-carboxamide] |
| < 6.00 | < 6.00 | NC(=O)c1nn2c(c1-c1ccc(Oc3ccccc3)cc1)NCCC2C1CCCCN1C(=O)n1cncn1 (centres unmarked) [Compound 203, 7-(1-(1H-1,2,4-triazole-1-carbonyl)piperidin-2-yl)-3-(4-phenoxy-phenyl)-4,5,6,7-tetrahydro-pyrazolo[1,5-a]pyrimidine-2-carboxamide] |
| ≥ 6.00 | ≥ 6.00 | CN(C(=O)n1cncn1)C1CCC(C2CCNc3c(C(N)=O)c(-c4ccc(Oc5ccccc5)cc4)nn32)CC1 (centres unmarked) [Compound 196, 7-(4-(N-methyl-1H-1,2,4-triazole-1-carboxamido)cyclohexyl)-2-(4-phenoxyphenyl)-4,5,6,7-tetrahydropyrazolo[1,5-a] pyrimidine-3-carboxamide] |
| ≥ 6.00 | ≥ 6.00 | CN(C(=O)n1cncn1)[C@@H]1CCC[C@H](n2nc(-c3ccc(Oc4ccccc4)cc3)c(C(N)=O)c2N)C1 [Compound 297, N-((1R,3S)-3-(5-amino-4-carbamoyl-3-(4-phenoxyphenyl)-1H-pyrazol-1-yl)cyclohexyl)-N-methyl-1H-1,2,4-triazole-1-carboxamide] |
| < 6.00 | < 6.00 | COC[C@H](C1CCNc2c(C(N)=O)c(-c3ccc(Oc4ccccc4)cc3)nn21)N(C)C(=O)n1cncn1 (stereo partly drawn) [Compound 156, 7-((S)-2-methoxy-1-(N-methyl-1H-1,2,4-triazole-1-carboxamido)ethyl)-2-(4-phenoxyphenyl)-4,5,6,7-tetrahydropyrazolo[1,5-a] pyrimidine-3-carboxamide] |
| ≥ 6.00 | ≥ 6.00 | COc1ccc(F)cc1C(=O)NCc1ccc(-c2nn(C[C@@H]3CCCCN3C(=O)n3cncn3)c3ncnc(N)c23)cc1 [Compound 274, (S)-N-(4-(1-((1-(1H-1,2,4-triazole-1-carbonyl)piperidin-2-yl)methyl)-4-amino-1H-pyrazolo[3,4-d]pyrimidin-3-yl)benzyl)-5-fluoro-2-methoxybenzamide] |
| ≥ 6.00 | ≥ 6.00 | COc1ccc(F)cc1C(=O)NCc1ccc(-c2nn(-c3ccc(CN(C)C(=O)n4cncn4)cc3)c3ncnc(N)c23)cc1 [Compound 138, N-(4-(4-amino-3-(4-((5-fluoro-2-methoxybenzamido)methyl)phenyl)-1H-pyrazolo[3,4-d]pyrimidin-1-yl)benzyl)-N-methyl-1H-1,2,4-triazole-1-carboxamide] |
| ≥ 6.00 | ≥ 6.00 | COc1ccc(F)cc1C(=O)NCc1ccc(-c2nn(C(C)CN(C)C(=O)n3cncn3)c3ncnc(N)c23)cc1 (centres unmarked) [Compound 226, N-(2-(4-amino-3-(4-((5-fluoro-2-methoxybenzamido)methyl)phenyl)-1H-pyrazolo[3,4-d]pyrimidin-1-yl)propyl)-N-methyl-1H-1,2,4-triazole-1-carboxamide] |
| < 6.00 | < 6.00 | CN(C(=O)n1cncn1)C1CCC2C(CNc3c(C(N)=O)c(-c4ccc(Oc5ccccc5)cc4)nn32)C1 (centres unmarked) [Compound 131, 7-(N-methyl-1H-1,2,4-triazole-1-carboxamido)-2-(4-phenoxyphenyl)-4,5,5a,6,7,8,9,9a-octahydropyrazolo [1,5-a]quinazoline-3-carboxamide] |
